# Assay results published in patent US20080045504A1, “Benzonitrile Derivatives to Treat Musculoskeletal Frailty” (PFIZER PRODUCTS INC., priority 2004, published 2008).
# Marks after values point to notes of the source that are not given here.
# What was measured:
# [1] = system: aged intact or orchidectomized (ORX) male rat; test: Effect on body weight, body composition and bone density in the aged intact and orchidectomized male rat; assay type: in vivo, SD rat
# Procedure: The purpose of this study is to test the effects of test compound in aged intact or orchidectomized (ORX) male rat model.
# Male SD rats at 11 months of age were sham-operated or ORX. One day post-surgery they were treated with test compound by subcutaneous injections (s.c.) at the average dose of 3 or 10 mg/kg per day for 8 weeks. The subcutaneous injections were given 2 times (Tuesday and Friday) per week with the first injection (Tuesday) at 9 or 30 mg/kg (in sesame oil, total 0.3 ml), and the second injection (Friday) at 12 or 40 mg/kg (in sesame oil, total 0.4 ml). All rats were injected subcutaneously with calcein at 10 mg/kg on 12 and 2 days before necropsy.
# [2] = system: orchiectomized (ORX) immature male rat; test: Orchiectomized immature rat assay (levator ani and ventral prostate weights); assay type: in vivo, Sprague Dawley rat; conditions: 4 days, TP 10 mg/kg = 100%, ORX control = 0%; for % TP Control LA: levator ani weight; for % TP Control VP: ventral prostate weight
# Procedure: All animal studies were performed in accordance with the Guide for Care and Use of Laboratory Animals (National Research Council, 1996). Twenty-one day old male Sprague Dawley rats were acquired from Taconic, Inc, Germantown, N.Y. Rats were housed five per cage at standard vivarium conditions ([…], 12-h light/dark cycle), with normal chow diet and tap water ad libitum. At 25 days of age, the rats underwent bilateral orchiectomy surgery (ORX) after sedation with 3-5% Isoflurane. Following the surgery, the animals were treated immediately by daily subcutaneous (s.c.) injection with vehicle (sesame oil), testosterone propionate (TP, 10 mg/kg) and test compounds. The dosage of test compound administered is in mg/kg. At the end of the 4 days of administrations, the animals were sacrificed in a carbon dioxide chamber, the ventral prostate (VP) and levator ani muscle complex (LA) were removed and weighed. The increase in the weights of VP or LA by TP was expressed as 100%, and the ORX control as baseline, 0%; the response of the test compounds was calculated as the percentage increase compared to TP.
# [3] = system: aged ovariectomized (OVX) female rat; test: Effect on body weight, body composition and bone density in the aged ovariectomized female rat; assay type: in vivo, Sprague-Dawley rat; conditions: OVX rats
# Procedure: Effect of Selective Androgen Receptor Modulator on Body Weight. Body Composition and Bone Density in the Aged Intact and Ovariectomized Female Rat The purpose of this study is to test the effects of test compound in aged intact or ovariectomized (OVX) female rat model.
# Sprague-Dawley female rats were sham-operated or OVX at 18 months of age, while a group of rats was necropsied at day 0 to serve as baseline controls. One day post-surgery, the rats were treated with either vehicle or test compound. The vehicle or test compound was administered twice a week (Tuesday and Friday) by subcutaneous injection (s.c.), with the test compound being administered at an average dose of 10 milligrams per kilogram of body weight per day (10 mg/kg/day).
# All rats were given s.c. injection of 10 mg/kg of calcein (Sigma, St. Louis, Mo.) for fluorescent bone label 2 and 12 days before necropsy. On the day of necropsy, all rats under ketamine/xylazine anesthesia were weighed and underwent dual-energy X-ray absorptiometry (DXA, QDR-4500/W, Hologic Inc., Waltham, Mass.) equipped with Rat Whole Body Scan software for lean and fat body mass determination. The rats were necropsied, then autopsied and blood was obtained by cardiac puncture. The distal femoral metaphysis and femoral shafts from each rat were analyzed by peripheral quantitative computerized tomography (pQCT), and volumetric total, trabecular and cortical bone mineral content and density were determined.
# Peripheral Quantitative Computerized Tomography (pQCT) Analysis: Excised femurs were scanned by a pQCT X-ray machine (Stratec XCT Research M, Norland Medical Systems, Fort Atkinson, Wis.) with software version 5.40. A 1 millimeter (mm) thick cross section of the femur metaphysis was taken at 5.0 mm ([…], a primary cancellous bone site) and 13 mm (femoral shafts, a cortical bone site) proximal from the distal end with a voxel size of 0.10 mm. Cortical bone was defined and analyzed using contour mode 2 and cortical mode 4. An outer threshold setting of 340 mg/cm^3 was used to distinguish the cortical shell from soft tissue and an inner threshold of 529 mg/cm^3 to distinguish cortical bone along the endocortical surface. Trabecular bone was determined using peel mode 4 with a threshold of 655 mg/cm^3 to distinguish (sub)cortical from cancellous bone. An additional concentric peel of 1% of the defined cancellous bone was used to ensure that (sub)cortical bone was eliminated from the analysis. Volumetric content, density, and area were determined for both trabecular and cortical bone (Jamsa T. et al., Bone 23:155-161, 1998; Ke, H. Z. et al., Journal of Bone and Mineral Research, 16:765-773, 2001). Using the above setting, it was determined that the ex vivo precision of volumetric content, density and area of total bone, trabecular, and cortical regions ranged from 0.99% to 3.49% with repositioning.
# The preceding protocol was carried out using the compound of Example 1 as the test compound. The vehicle employed in experimental groups II-IV was 100% sesame oil. The rats in groups II-IV were dosed s.c. twice a week (on Tuesday and Friday) with 0.3 ml and 0.4 ml. This dosing provided an average daily dose of 10 mg/kg/day of the compound of Example 1 for experimental group IV.
# The values provided in Table 3 are the mean values±the standard error measurement. In Table 3 and the experimental protocol the following abbreviations or symbols had the following definitions. DFM: distal femoral metaphysis; FS: femoral shafts; g: grams; mg/cm^3: milligrams per cubic centimeter; mg/mm: milligrams per millimeter; a: p<0.05 vs. Baseline; b: p<0.05 vs. Sham; c: p<0.05 vs. OVX; mg/kg/day: milligrams per kilogram of body weight per day; and ml: milliliter.
# [4] = Group II (sham, 3 mg/kg/d) compared to Group I (sham + vehicle)
# [5] = sham and ORX rats, 3 or 10 mg/kg/d s.c. for 8 weeks
# [6] = sham and ORX rats, 3 or 10 mg/kg/d s.c. for 8 weeks, dose dependant, except Group II
# [7] = 10 mg/kg/day s.c. twice a week, DXA, mean ± SEM
# [8] = 10 mg/kg/day s.c., distal femoral metaphysis, pQCT, mean ± SEM
# [9] = 10 mg/kg/day s.c., femoral shafts, pQCT, mean ± SEM
# [10] = 10 mg/kg/day, compared to OVX rats administered vehicle
smiles,measurement,setting,value
"CC[C@H]1CCCCN1c1ccc(C#N)c(C(F)(F)F)c1 [Example 1, 4-(2-(S)-Ethyl-piperidin-1-yl)-2-trifluoromethyl-benzonitrile]",fat body mass,[1]; [4],slight increase
same,lean body mass,[1]; [4],slight decrease
same,prostate weight,[1]; Group II sham rats (3 mg/kg/d),did not increase
same,prostate weight,"[1]; Group III (sham, 10 mg/kg/d) compared to Group I",slight increase
same,prostate weight,"[1]; ORX rats, 3 or 10 mg/kg/d, dose dependent",increased prostate weight in ORX rats to the level of sham controls
same,levitor anni weight,[1]; [5],increased
same,total density in the femoral shaft (FS),[1]; [5],increased
same,trabecular density in the distal femoral metaphysis (DFM),[1]; [5],increased
same,fat body mass,[1]; [6],decreased
same,lean body mass,[1]; [6],increased
same,% TP Control LA,[2]; 3 mg/kg s.c.,53%
same,% TP Control LA,[2]; 10 mg/kg s.c.,93%
same,% TP Control LA,[2]; 30 mg/kg s.c.,100%
same,% TP Control VP,[2]; 3 mg/kg s.c.,11%
same,% TP Control VP,[2]; 10 mg/kg s.c.,30%
same,% TP Control VP,[2]; 30 mg/kg s.c.,33%
same,Body Weight,"[3]; 10 mg/kg/day s.c. twice a week in sesame oil, mean ± SEM","459 ± 10.7^b,c g"
same,Fat Body Mass,[3]; [7],121.7 ± 7.9^c g
same,lean body mass,[3]; [7],319.0 ± 7.7^c g
same,Total Density of DFM,[3]; [8],602.2 ± 12.3^b mg/cm^3
same,Trabecular Density of DFM,[3]; [8],310.4 ± 0.16 mg/mL
same,Cortical Content of FS,[3]; [9],11.8 ± 0.15^c mg/mm
same,Total Content of FS,[3]; [9],11.9 ± 0.16^c mg/mm
same,effect on body weight,[3]; [10],negligible effect
same,effect on fat body mass,[3]; [10],significantly decreased
same,effect on lean body mass,[3]; [10],significantly increased
